Assay results reported in ChEMBL document CHEMBL5252612, “A novel selective estrogen receptor degrader induces cell cycle arrest in breast cancer via ERα degradation and the autophagy-lysosome pathway” (Bioorg Med Chem, 2023).
Calls of active or inactive are those of the source. The rule behind the calls is not given here.

How the values were obtained:
[1] = system: T47D; assay: Induction of cell cycle arrest in human T47D cells assessed as proportion of cells at G2 phase at 10 uM incubated for 24 hrs in presence of autophagy inhibitor, 3-MA by flow cytometry (reference value: 18.2%); assay type: functional
[2] = system: T47D; assay: Induction of apoptosis and necrosis in human T47D cells assessed as live cells at 10 uM incubated for 48 hrs by AnnexinV-FITC/PI staining based flow cytometry (reference value: 96.26%); assay type: functional
[3] = Induction of cell cycle arrest in tamoxifen-resistant human LCC2 cells assessed as proportion of cells at G1 phase at 10 uM by flow cytometry (reference value: 47.4%); assay type: functional
[4] = system: MCF7; assay: Induction of cell cycle arrest in human MCF7 cells assessed as proportion of cells at G2 phase at 5 uM incubated for 24 hrs by flow cytometry (reference value: 25.5%); assay type: functional
[5] = system: T47D; assay: Induction of autophagy in human T47D cells assessed as upregulation of MAP1LC3B expression at 10 uM incubated for 12 hrs by RNA-seq analysis; assay type: functional, cell-based
[6] = system: T47D; assay: Induction of autophagy in human T47D cells assessed as upregulation of LAMP2 protein expression at 10 uM incubated for 24 hrs by western blot analysis; assay type: functional, cell-based
[7] = system: T47D; assay: Induction of cell cycle arrest in human T47D cells overexpressing MYC assessed as proportion of cells at G2 phase at 10 uM incubated for 24 hrs by flow cytometry (reference value: 48.5%); assay type: functional
[8] = system: MCF7; assay: Induction of apoptosis in human MCF7 cells at 10 uM incubated for 48 hrs by TUNEL assay; assay type: functional, cell-based
[9] = Induction of cell cycle arrest in tamoxifen-resistant human LCC2 cells assessed as proportion of cells at G1 phase at 5 uM by flow cytometry (reference value: 47.4%); assay type: functional
[10] = Induction of cell cycle arrest in tamoxifen-resistant human LCC2 cells assessed as proportion of cells at G2 phase at 10 uM by flow cytometry (reference value: 23.7%); assay type: functional
[11] = Induction of cell cycle arrest in tamoxifen-resistant human LCC2 cells assessed as proportion of cells at G1 phase at 1 uM by flow cytometry (reference value: 47.4%); assay type: functional
[12] = system: T47D; assay: Induction of cell cycle arrest in human T47D cells assessed as proportion of cells at G2 phase at 1 uM incubated for 24 hrs by flow cytometry (reference value: 24.4%); assay type: functional
[13] = system: MCF7; assay: Induction of cell cycle arrest in human MCF7 cells assessed as proportion of cells at G1 phase at 5 uM incubated for 24 hrs by flow cytometry (reference value: 46.3%); assay type: functional
[14] = molecular target: T1, Estrogen receptor (Homo sapiens) (UniProt P03372); assay: Induction of ER-alpha degradation in human T47D cells assessed as decrease in ER-alpha protein expression in presence of autophagy inhibitor, 3-MA of by western blot analysis; assay type: cell-based
T1 sequence (whole entry): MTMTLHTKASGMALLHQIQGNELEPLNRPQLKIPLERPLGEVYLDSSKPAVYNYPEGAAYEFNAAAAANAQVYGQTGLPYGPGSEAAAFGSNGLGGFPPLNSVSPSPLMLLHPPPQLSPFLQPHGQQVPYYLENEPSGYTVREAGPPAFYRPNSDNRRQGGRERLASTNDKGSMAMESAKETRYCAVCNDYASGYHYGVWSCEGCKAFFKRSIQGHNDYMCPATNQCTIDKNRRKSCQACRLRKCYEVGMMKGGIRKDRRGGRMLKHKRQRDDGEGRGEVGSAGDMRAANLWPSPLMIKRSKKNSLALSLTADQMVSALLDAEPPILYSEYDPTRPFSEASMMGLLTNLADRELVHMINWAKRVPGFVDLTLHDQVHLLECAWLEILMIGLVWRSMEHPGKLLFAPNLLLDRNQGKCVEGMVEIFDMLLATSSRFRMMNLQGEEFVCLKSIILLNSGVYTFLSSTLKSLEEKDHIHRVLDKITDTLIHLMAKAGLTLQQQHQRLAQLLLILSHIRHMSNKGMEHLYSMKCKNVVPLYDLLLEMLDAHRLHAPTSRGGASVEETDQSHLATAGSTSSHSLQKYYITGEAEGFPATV

[15] = system: T47D; assay: Induction of autophagy in human T47D cells assessed as increase in number of lysosomes at 1 to 10 uM by LysoTracker dye based confocal microscopy; assay type: functional, cell-based; settings: dose 1-10 µM
[16] = system: T47D; assay: Inhibition of colony formation in human T47D cells at 10 uM incubated for 14 days in presence of autophagy inhibitor, 3-MA by crystal violet staining based analysis; assay type: functional, cell-based; settings: time 14.0 day
[17] = molecular target: T1, Estrogen receptor (Homo sapiens); assay: Induction of ER-alpha degradation in human T47D cells assessed as decrease in ER-alpha protein expression in presence of proteasome inhibitor, MG132 by western blot analysis; assay type: cell-based
[18] = system: T47D; assay: Anticancer activity against ER-alpha positive human T47D cells assessed as reduction in cell viability at 10 uM measured after 48 hrs in presence of autophagy inhibitor, 3-MA by CCK8 assay; assay type: functional, cell-based
[19] = system: T47D; assay: Induction of cell cycle arrest in human T47D cells overexpressing MYC assessed as proportion of cells at S phase at 10 uM incubated for 24 hrs by flow cytometry (reference value: 24.2%); assay type: functional
[20] = Downregulation of MYC expression in human T47D cells at 10 uM incubated for 12 hrs by RNA-seq analysis; assay type: functional
[21] = Toxicity in BALB/c nude mouse xenografted with human MCF7 cells assessed as kidney cell morphological changes at 2 to 4 mg/kg, ip administered every other day by Hematoxylin and eosin staining based analysis; assay type: organism-based; settings: in vivo, dose 2-4 mg/kg
[22] = system: T47D; assay: Induction of cell cycle arrest in human T47D cells transfected with empty vector assessed as proportion of cells at G2 phase at 10 uM incubated for 24 hrs by flow cytometry (reference value: 53%); assay type: functional
[23] = Induction of cell cycle arrest in tamoxifen-resistant human LCC2 cells assessed as proportion of cells at S phase at 1 uM by flow cytometry (reference value: 28.4%); assay type: functional
[24] = system: T47D; assay: Induction of cell cycle arrest in human T47D cells transfected with empty vector assessed as proportion of cells at S phase at 10 uM incubated for 24 hrs by flow cytometry (reference value: 25.9%); assay type: functional
[25] = system: T47D; assay: Induction of autophagy in human T47D cells assessed as increase in LC3 protein expression at 5 to 10 uM incubated for 24 hrs in presence of chloroquine by western blot analysis; assay type: functional, cell-based; settings: dose 5-10 µM
[26] = system: MCF7; assay: Induction of cell cycle arrest in human MCF7 cells assessed as proportion of cells at G2 phase at 1 uM incubated for 24 hrs by flow cytometry (reference value: 25.5%); assay type: functional
[27] = system: T47D; assay: Induction of autophagic flux in human T47D cells transfected with mCherry-EGFP-LC3 assessed as increase in red fluorescence at 1 to 10 uM incubated for 24 hrs by confocal microscopic analysis; assay type: functional, cell-based; settings: dose 1-10 µM
[28] = system: MCF7; assay: Inhibition of colony formation in human MCF7 cells at 1 to 10 uM incubated for 14 days by crystal violet staining based analysis; assay type: functional, cell-based; settings: dose 1-10 µM, time 14.0 day
[29] = system: T47D; assay: Induction of cell cycle arrest in human T47D cells assessed as proportion of cells at S phase at 1 uM incubated for 24 hrs by flow cytometry (reference value: 15.3%); assay type: functional

COc1ccc(N(CC(F)(F)F)S(=O)(=O)C2CC3OC2C(c2ccc(OCCN4CCCC4)cc2)=C3c2ccc(O)cc2)cc1 (centres undefined)
Activity [1]: 19.3%
Activity [2]: 93.26%
Activity [3]: 71.6%
Activity [4]: 16.5%
Activity [5]: Active
Activity [6]: Active
Activity [7]: 52.5%
Activity [8]: Active
Activity [9]: 71.9%
Activity [10]: 13%
Activity [11]: 63.9%
Activity [12]: 23.3%
Activity [13]: 65.1%
Activity [14]: Active
Activity [15]: Active
inhibition [16]: inactive
Activity [17]: inactive
Activity [18]: inactive
Activity [19]: 22.6%
fold change (FC) [20]: -1.037
Activity [21]: Non-Toxic
Activity [22]: 33.7%
Activity [23]: 19.6%
Activity [24]: 22.8%
Activity [25]: Active
Activity [26]: 18.5%
Activity [27]: Active
inhibition [28]: Active
Activity [29]: 9.47%
